Data: patent US20230247989A1, “Synergistic Biocide Composition With a Polyglycerol Ester” (Arch UK Biocides Ltd, priority 2020, published 2023)

Test system: Pseudomonas aeruginosa ATCC 15442
Assay: Suspension test for synergy: log reduction of Pseudomonas aeruginosa after 5 min contact
Format: cell-based
Settings: for Log Reduction: 5 minutes contact
Procedure: The target organism Pseudomonas aeruginosa ATCC 15442 was taken from freezer stocks and grown for 24 hours on tryptone soy agar (TSA) at 37° C. A second subculture was produced from the first and grown with the same conditions. A test suspension was then created by adding loopfuls of organism to tryptone buffered saline and adjusting the cell concentration to 1×10^8 and 5×10^8 CFU/ml using an internally established calibration curve spectrophotometer at a wavelength of 600 nm. To establish the precise CFU/ml a 1 ml aliquot was then taken from the test suspension and serially diluted down to 10^−6 and 10^−7, 1 ml of each dilution was then plated in duplicate using the pour plate method on to TSA. The plates were then incubated for 24 hours at 37° C. and enumerated.
For each biocide tested a series of 3 samples were prepared in sterile distilled water,
Test sample 1—Biocide alone (to measure basic efficacy of the biocide)
Test sample 2—Biocide in combination with polyglyceryl-10 caprylate/caprate (to measure the efficacy of the combination of biocide and polyglycerol ester)
Control—A control sample of polyglyceryl-10 caprylate/caprate was prepared in deionized water to measure the efficacy of polyglycerol ester alone.
Each test sample was prepared at a concentration 10% higher than that of the target concentration to account for the dilution effect from the addition of the test organism suspension during the test procedure.
A test mixture was prepared by adding a 0.1 ml aliquot of test organism suspension to a tube followed by 0.9 ml of test sample (prepared as above). The combination was then mixed and a timer started immediately.
Upon achieving the specified contact time the test mixture was deactivated by adding a 0.1 ml aliquot of the test mixture to 0.9 ml of neutralizing broth and the whole solution mixed. The solution was left for 5 minutes to ensure the action of the biocide was effectively neutralized.
To quantify the surviving number of organisms in the neutralized test mixture, 4×0.025 ml aliquots were taken and spot plated onto the surface of dried TSA. The plates were then incubated for 24 hours at 37° C.
For spot plating, colonies from the incubated plates were enumerated using the lower count limit of <1 and the upper count limit of >150. […] For the upper limit, if 156 colonies were counted on a plate, >150 would be recorded and 150 would be used for the calculation.
Enumeration and Calculation of T (Test Mixture) • First, the mean average of cfu per 0.025 ml spots was established using the below calculation,
Log Reduction Calculations (N0−T) • Before calculating the log reduction both N0 and T were converted into a logarithm base 10 value. For example;
The test procedure outlined above was used to test for synergy between polyglyceryl-10 caprylate/caprate (PG1000) and the various biocidal agents listed in Table 1. Varying concentrations were prepared and were tested at 5 mins for the presence of Pseudomonas aeruginosa.

N=C(NCCCCCCNC(=N)NC(=N)Nc1ccc(Cl)cc1)NC(=N)Nc1ccc(Cl)cc1 [Chlorhexidine, reference compound]
Log Reduction (biocide alone 65 ppm): 3.44

CCCCCCCCCCCCN(C)C.Cl [Dodecyledimethylammonuim chloride]
Log Reduction (biocide alone 20 ppm): 3.88

CC(C)O [Isopropanol]
Log Reduction (biocide alone 16%): <2.85

CCCCCCCCCCCCN(CCCN)CCCN [N-(3-aminopropyl)-N-dodecylpropane-1,3-diamine]
Log Reduction (biocide alone 50 ppm): 2.98

polyglyceryl-10 caprylate/caprate [PGE Control]
Log Reduction (PGE alone 100 ppm in deionized water): <2.92
activity (in words) (at 100 ppm, 5 mins): little or no activity
